Results as given in patent publication US20120010177A1, “MicroRNA Modulators and Method for Identifying And Using The Same” (The Wistar Institute / North Carolina State University, priority 2008, published 2012).
Like-named read-outs stand apart in the source and are kept apart here.

System: miR-21
Test: High throughput primary miR-21 FLuc reporter assay (concentration-response)
Format: cell-based, human
Procedure, shortened: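 HeLa cells carrying a Luc-miR-21 firefly luciferase reporter were treated with compound for 48 h. miR-21 inhibition was read as increased luciferase signal. Concentration-response data were fitted with a four-parameter logistic model.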

[1] = Homo sapiens, HeLa, 48 h, HeLa Luc-miR-21 reporter, 48-hour incubation, read-out: AC50
[2] = Homo sapiens, Table 12 singletons, read-out: AC50

Row | Structure (SMILES) | AC50 [2] | also measured
1 | C/C(CCc1ccccc1)=N\NC(=O)c1ccccc1 [Compound 222] |  | AC50 [1]: 13.1 µM
2 | Cc1ccsc1/C=N/NC(=O)c1ccc(-n2cccc2)cc1 [Compound 223] |  | AC50 [1]: 13.1 µM
3 | O=C(N/N=C/c1ccc2cccnc2c1)c1nc(O)c2ccccc2n1 [Compound 224] |  | AC50 [1]: 13.1 µM
4 | C/C(CCc1ccc2c(c1)OCO2)=N\NC(=O)c1ccccc1 [Compound 225] |  | AC50 [1]: 13.1 µM
5 | O=C(O)c1ccccc1C(=O)N1N=C(c2ccccc2)CC1c1ccccc1O (centres unmarked) [Compound 226] |  | AC50 [1]: 14.7 µM
6 | CC(=O)N1N=C(c2ccc(C)cc2)OC1c1cccnc1 (centres unmarked) [Compound 228] |  | AC50 [1]: 16.5 µM
7 | C/C(=N\NC(=O)c1ccco1)c1ccc(NC(=O)C(F)(F)F)cc1 [Compound 229] |  | AC50 [1]: 16.5 µM
8 | CCCCCCC1/C(=N\NC(=O)c2ccccc2)CCC1C(=O)OC (centres unmarked) [Compound 230] |  | AC50 [1]: 16.5 µM
9 | CC1=NN(C(=O)c2ccc(C)o2)C(O)(c2ccccc2)C1 (centres unmarked) [Compound 231] |  | AC50 [1]: 16.5 µM
10 | C/C(=N\NC(=O)c1nn(C)cc1Br)c1ccc(NC(=O)c2ccncc2)cc1 [Compound 234] |  | AC50 [1]: 18.5 µM
11 | O=C(N/N=C/c1ccc(OC(=O)c2cccs2)cc1)c1cccc(F)c1 [Compound 235] |  | AC50 [1]: 18.5 µM
12 | C/C(Cn1cnc([N+](=O)[O-])n1)=N\NC(=O)c1ccccc1 [Compound 236] |  | AC50 [1]: 20.8 µM
13 | COc1ccc(NC(=O)C/C(C)=N/NC(=O)c2ccco2)c([N+](=O)[O-])c1 [Compound 237] |  | AC50 [1]: 20.8 µM
14 | Cc1oc(/C=N/NS(=O)(=O)c2ccccc2)cc1Br [Compound 238] |  | AC50 [1]: 13.1 µM
15 | Cc1ccccc1OCCn1cnc2c(N)ncnc21 [Compound 239] |  | AC50 [1]: 9.27 µM
16 | Cc1ccc(OCCn2cnc3c(N)ncnc32)cc1 [Compound 240] |  | AC50 [1]: 16.5 µM
17 | COc1cc(-c2nc3cnccn3c2Nc2ccc(C(C)C)cc2)ccc1O [Compound 241] |  | AC50 [1]: 3.29 µM
18 | Cc1ccc(-c2nc3ncccn3c2Nc2ccc3c(c2)OCCO3)o1 [Compound 242] |  | AC50 [1]: 16.5 µM
19 | Cc1ccc(-c2nc3cnccn3c2Nc2ccccc2)o1 [Compound 243] |  | AC50 [1]: 16.5 µM
20 | Cc1ccc(Nc2c(-c3ccc(C)o3)nc3cnccn23)cc1 [Compound 244] |  | AC50 [1]: 16.5 µM
21 | Clc1ccc(-n2ncc3c(NCc4ccccn4)ncnc32)cc1 [Compound 245] |  | AC50 [1]: 5.85 µM
22 | CCCNc1ncnc2c1cnn2-c1ccc(OC)cc1 [Compound 246] |  | AC50 [1]: 0.29 µM
23 | COc1ccc(-n2ncc3c(NCCCn4ccnc4)ncnc32)cc1 [Compound 247] |  | AC50 [1]: 10.4 µM

Row | Structure (SMILES) | AC50 [2] | also measured
24 | CCCNc1nc(C)nc2c1cnn2CCc1ccccc1 [Compound 248] |  | AC50 [1]: 14.7 µM
25 | O=C(CCS(=O)(=O)c1ccccc1)Nc1ccc(-c2nc3ccccc3s2)cc1 [Compound 249] | 0.26 µM | 
26 | Cc1c(-c2nc(-c3ccc(C(F)(F)F)cc3)no2)n(C)oc1=O [Compound 250] | 0.29 µM | 
27 | CCC(C)NC(=O)CCCn1c(=O)c2cccn2c2ccccc21 (centres unmarked) [Compound 251] | 0.93 µM | 
28 | Cn1c(=O)[nH]c2cc(-c3noc(-c4ccc(F)cc4)n3)ccc21 [Compound 252] | 1.31 µM | 
29 | CC(C)(C)NS(=O)(=O)c1cccc(S(=O)(=O)c2cccc(S(=O)(=O)NC(C)(C)C)c2)c1 [Compound 253] | 1.65 µM | 
30 | CC(=O)N1CCN(c2nc3c(F)cc(F)cc3s2)CC1 [Compound 254] | 1.85 µM | 
31 | COc1ccc(NCc2cccn2-c2nnc(N3CCC(C)CC3)s2)c(OC)c1 [Compound 255] | 1.85 µM | 
32 | COc1ccc(-c2nc3c(Br)c(N)c(Br)cc3o2)cc1 [Compound 256] | 2.07 µM | 
33 | c1ccc(-c2onc3cc4c(cc23)OCCO4)cc1 [Compound 257] | 2.07 µM | 
34 | Cc1ccc(-c2nc3ccccc3o2)cc1NC(=S)NC(=O)c1cc2ccccc2o1 [Compound 258] | 2.93 µM | 
35 | COc1ccc(-c2csc(NC(=O)COC(=O)c3ccc(Br)o3)n2)cc1 [Compound 259] | 2.93 µM | 
36 | O=S(=O)(c1ccc(F)cc1)n1ccc(-c2cnc(-c3ccccc3)s2)n1 [Compound 260] | 2.93 µM | 
37 | CC(=O)COc1ccc2c3c(c(=O)oc2c1C)CCCCC3 [Compound 261] |  | AC50 (Homo sapiens): 3.29 µM
38 | Nc1c(-c2ccccc2)n[nH]c1-c1ccccc1 [Compound 262] | 3.29 µM | 
39 | COc1ccc(-c2c/c(=N\CC(=O)O)c3ccccc3o2)cc1.[O-][Cl+3]([O-])([O-])O [Compound 263] |  | AC50 (Homo sapiens): 3.69 µM
40 | Cc1ccc2[nH]c3c(S)ncnc3c2c1 [Compound 264] | 3.69 µM | 
41 | c1ccc(C2=Nn3c(nnc3-c3cc(-c4ccccc4)[nH]n3)SC2)cc1 [Compound 265] | 3.69 µM | 
42 | Nc1c(Cl)cc2c(c1Oc1ccccc1)C(=O)c1ccccc1C2=O [Compound 266] | 4.14 µM | 
43 | O=C1C(Nc2ccccc2)=C2CCCC=C2N1c1ccccc1 [Compound 267] | 4.14 µM | 
44 | Fc1cccc(/C=N/N=C(\S)Nc2ccccc2Cl)c1 [Compound 268] | 4.65 µM | 
45 | O=S(=O)(c1cccc2nsnc12)N1CCc2ccccc21 [Compound 269] | 4.65 µM | 
46 | COCCC/N=C(\S)N/N=C/c1ccc(N(C)C)cc1Cl [Compound 270] | 5.85 µM | 

Row | Structure (SMILES) | AC50 [2] | also measured
47 | O=C(Nc1ccccc1)c1cc2n(n1)C(C(F)(F)F)CC(C1CC1)N2 (centres unmarked) [Compound 272] | 6.56 µM | 
48 | COC(=O)c1ccc(Cn2nnc3sc4c(c3c2=O)CCCC4)cc1 [Compound 273] | 6.56 µM | 
49 | NC(=O)COC(=O)c1ccc2noc(-c3ccccc3)c2c1 [Compound 274] | 6.56 µM | 
50 | N#CC1=C(SCC(=O)Nc2ccccc2)NC(=O)CC1c1ccc(O)cc1 (centres unmarked) [Compound 275] | 6.56 µM | 
51 | Oc1csc(Cc2nc(-c3ccccc3F)cs2)n1 [Compound 276] | 6.56 µM | 
52 | CSc1ccc(-c2cccc([N+](=O)[O-])c2)nn1 [Compound 277] | 6.56 µM | 
53 | COc1ccc(C2CC(C)(c3ccc(OC)cc3)Nc3ccccc3N2)cc1 (centres unmarked) [Compound 278] | 7.36 µM | 
54 | COc1cc(O)sc1/C=N/c1ccc(Cl)cc1 [Compound 279] | 7.36 µM | 
55 | O=C(CN1c2ccc(Br)cc2-c2ccccc2S1(=O)=O)N1CCCCC1 [Compound 280] | 7.36 µM | 
56 | C[C@]12CC[C@H]3C(=CCc4cc(O)ccc43)[C@@H]1CCC2=O [Compound 281] | 7.36 µM | 
57 | CN(C)c1ccc(-n2cccc2/C=N/n2cnnc2)cc1 [Compound 282] | 8.26 µM | 
58 | Cn1nc(NC(=O)C(F)(F)F)c2ncc(-c3ccc(Cl)cc3)nc21 [Compound 283] | 9.27 µM | 
59 | NC1=NC(=O)/C(=C/c2cn(Cc3ccccc3)c3ccccc23)S1 [Compound 284] | 9.27 µM | 
60 | CCCCC12CN3CCN(CC(C3)/C1=N/NC(=O)c1ccccc1N)C2 [Compound 285] | 9.27 µM | 
61 | COP(=O)(OC)C(Nc1ccc(C)cc1)c1ccc([N+](=O)[O-])cc1 (centres unmarked) [Compound 286] |  | AC50 (Homo sapiens): 10.4 µM
62 | COc1ccc(/C=C/C(=O)NC2CCCCCC2)cc1S(=O)(=O)N1CCOCC1 [Compound 287] | 10.4 µM | 
63 | CCC(=O)Oc1ccc(NC(=O)CSCc2ccccc2)cc1 [Compound 288] | 11.7 µM | 
64 | COc1ccc(C(CC(=O)Nc2ccc(C(C)=O)cc2)N2Cc3ccccc3C2=O)cc1 (centres unmarked) [Compound 289] | 11.7 µM | 
65 | CNc1cc([N+](=O)[O-])ccc1/N=C/C=C(\O)c1cccs1 [Compound 290] | 11.7 µM | 
66 | CCc1ccc(NC(=O)NCCCN2CCCC2=O)cc1 [Compound 291] | 11.7 µM | 
67 | Cn1nc(NC(=O)C(F)(F)F)c2ncc(-c3ccc(Cl)cc3)nc21 [Compound 292] |  | AC50 (Table 12 singletons, read-out: AC50): 13.1 µM
68 | CCOC(=O)c1s/c(=N/C(=O)c2c(F)cccc2F)n(C)c1C [Compound 293] | 13.1 µM | 
69 | O=c1c(=Nc2ccccc2O)c(=O)c2ccccc12 [Compound 294] | 13.1 µM | 

Row | Structure (SMILES) | AC50 [2] | also measured
70 | CC1(C)Cc2nc3oc4c(S)ncnc4c3cc2CO1 [Compound 295] | 13.1 µM | 
71 | Cc1nc2ccc(/N=C(\S)N3CCC(C)CC3)cc2nc1C [Compound 296] | 13.1 µM | 
72 | Cc1ccc2nc(C)c(/C=C/C(=O)c3ccco3)cc2c1 [Compound 297] | 14.7 µM | 
73 | O=C(c1ccc(COCC(F)(F)F)cc1)N1CCN(c2ccccn2)CC1 [Compound 298] | 14.7 µM | 
74 | Nc1ccc2c(c1)Cc1cc([N+](=O)[O-])ccc1-2 [Compound 299] | 14.7 µM | 
75 | CC(C)N1C(=O)CN(C2CCCCCC2)C(=O)C1c1ccccc1F (centres unmarked) [Compound 301] | 14.7 µM | 
76 | CC(/C=C/c1ccccc1)=N\N/C(S)=N/C(C)C [Compound 302] | 14.7 µM | 
77 | CCOc1cccc(OCCOc2ccccc2[N+](=O)[O-])c1 [Compound 303] | 14.7 µM | 
78 | Cc1ccc(/N=C(/c2cccs2)N2CCOCC2)cc1 [Compound 304] | 14.7 µM | 
79 | Cc1ccc2c(c1)NCC(C(=O)NC1CCC(C)CC1)O2 (centres unmarked) [Compound 305] | 14.7 µM | 
80 | CCN(CC)C(=O)CS/C(=N/C#N)Nc1ccccc1F [Compound 306] | 14.7 µM | 
81 | CCc1cccc(CC)c1N(COC)C(=O)Cn1c(CC)nc2ccccc21 [Compound 307] | 14.7 µM | 
82 | CC(C)(C)c1ccc(CN2C(=O)c3ccccc3S2(=O)=O)cc1 [Compound 308] | 14.7 µM | 
83 | CCn1c(=O)c(C(=O)Nc2ccccc2S(N)(=O)=O)c(O)c2ccccc21 [Compound 309] | 14.7 µM | 
84 | COc1ccc(-c2nn3c(-c4ccccc4)nnc3s2)cc1OC [Compound 310] | 14.7 µM | 
85 | Cn1nc2c3ccccc3n(Cc3ccccc3)c2nc1=S [Compound 311] | 14.7 µM | 
86 | CC(=O)O[C@H]1C[C@@]2(C)[C@@H](C[C@@H](O)[C@H]3[C@@]4(C)CC[C@@H](O)[C@@H](C)C4CC[C@@]32C)/C1=C(\CCC=C(C)C)C(=O)O (some centres unmarked) [Compound 312] | 14.7 µM | 
87 | Cc1cc(CC(C)C)n(-c2nc3ccccc3c(=O)n2OCC(N)=O)n1 [Compound 313] | 14.7 µM | 
88 | c1csc(-c2nn3c(C4COc5ccccc5O4)nnc3s2)c1 (centres unmarked) [Compound 314] | 16.5 µM | 
89 | O=C(CC1NCCc2ccccc21)Nc1cccc(Cl)c1 (centres unmarked) [Compound 315] | 16.5 µM | 
90 | CNc1nc(C)c(C(=O)OCc2ccccc2)s1 [Compound 316] | 16.5 µM | 
91 | O=C(NC12CC3CC(CC(C3)C1)C2)N1CCN(C(=O)c2ccco2)CC1 [Compound 317] | 16.5 µM | 
92 | CCc1ccc(N2C(=O)Cc3c2nc(N)c(C#N)c3N)cc1 [Compound 318] | 16.5 µM | 
